Measurements taken from US4672068A, “Antihypertensive 1,4-dihydropyridines having a conjugated ester” (Fujirebio Kabushiki Kaisha, priority 1984, dated 1987).

Columns and labels:
[1] = system: Male SHR, systolic blood pressure; assay: Systolic blood pressure by tail cuff method, oral administration (3 mg/kg), Table 4; type: in vivo, rat; details: conscious SHR; for Duration: '24<' means greater than 24
Description: Systolic blood pressure was measured by the tail cuff method with electrophygmomanometer (PE-300, made by Narco Co.). Each derivative (3 mg/kg) was administered orally, suspended in 5% gum arabic solution.

[2] = system: Male spontaneously hypertensive rats (SHR), arterial blood pressure; assay: Depressor response after intraduodenal administration (1 mg/kg), Table 2; type: in vivo, rat; details: for Half-life: '120<' means greater than 120
Description: Arterial blood pressure was measured through the catherized artery with a pressure transducer (MPU-0.5, manufactured by Nihon Kohden Kabushiki Kaisha). The catheter was inserted into the abdominal aorta via the median coccygcal artery of SHR under light ether anesthesia. The recordings were made on a rectigraph (manufactured by Sanei Sokki Kabushiki Kaisha). The 1,4-dihydropyridine derivatives prepared in the foregoing examples were administered with catheter which was inserted previously into the caudal vein or duodenum at least two hours after the operation. SHR were restrained with wire mesh cage immediately after the operation.

[3] = system: Male spontaneously hypertensive rats (SHR), arterial blood pressure; assay: Depressor response after intravenous administration (30 μg/kg), Table 1; type: in vivo, rat; details: for Duration: '90<' means greater than 90
In short: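 Conscious restrained SHR with mean arterial pressure above 140 mmHg; pressure recorded via abdominal aortic catheter and transducer. Dosing was at least 2 h after surgery, through a caudal vein catheter. Compound was given in 1.5% PVP/ethanol diluted with 0.9% saline.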

[4] = system: rat (SHR), blood pressure and heart rate; assay: Depressor response of trans- and cis-forms, dose-response intravenous, Tables 5 and 6; type: in vivo
Description: Male spontaneously hypertensive rats (SHR) which had mean arterial blood pressures higher than 140 mmHg were used for the experiments. Arterial blood pressure was measured through the catherized artery with a pressure transducer (MPU-0.5, manufactured by Nihon Kohden Kabushiki Kaisha). The catheter was inserted into the abdominal aorta via the median coccygcal artery of SHR under light ether anesthesia. The recordings were made on a rectigraph (manufactured by Sanei Sokki Kabushiki Kaisha). The 1,4-dihydropyridine derivatives prepared in the foregoing examples were administered with catheter which was inserted previously into the caudal vein or duodenum at least two hours after the operation. SHR were restrained with wire mesh cage immediately after the operation. […]

Row | Compound | The time to reach the lowest BP [2] [min] | ΔBP (Maximum depressor response) [2] [mmHg] | Half-life [2] [h] | The time to reach the lowest BP [3] [min] | ΔBP (Maximum depressor response) [3] [mmHg] | Duration [3] [min] | also measured
1 | COC(=O)C1=C(C)NC(C)=C(C(=O)OCCC=Cc2ccc3ccccc3c2)C1c1cccc([N+](=O)[O-])c1 (stereo not drawn) [Example 12, 4-β-naphthyl-3-butenyl methyl 4-(3-nitrophenyl)-2,6-dimethyl-1,4-dihydropyridine-3,5-dicarboxylate] | – | – | – | – | – | – | ΔBP After 1 hour [1]: -30 mmHg; ΔBP After 3 hours [1]: -55 mmHg; Duration [1]: > 24 h
2 | CCOC(=O)C1=C(C)NC(C)=C(C(=O)OCC=Cc2ccccc2)C1c1cccc([N+](=O)[O-])c1 (centres unmarked) [Example 15, Cinnamyl ethyl 4-(3-nitrophenyl)-2,6-dimethyl-1,4-dihydropyridine-3,5-dicarboxylate] | 75 | 45 | > 2 | – | – | – | ΔBP After 3 hours [1]: -35 mmHg; Duration [1]: 7 to 24 h
3 | C=CCOC(=O)C1=C(C)NC(C)=C(C(=O)OC)C1c1cccc([N+](=O)[O-])c1 (centres unmarked) [C, 4(3-nitrophenyl)-2,6-dimethyl-1,4-dihydropyridine-3,5-dicarboxylic aci 3methyl ester 5allyl ester, reference compound] | 8 | 20 | 0.333 | – | – | – | –
4 | COC(=O)C1=C(C)NC(C)=C(C(=O)OCCCC=Cc2ccccc2)C1c1cccc([N+](=O)[O-])c1 (centres unmarked) [Example 50, Methyl 5-phenyl-4-pentenyl 4-(3-nitrophenyl)-2,6-dimethyl-1,4-dihydropyridine-3,5-dicarboxylate] | – | – | – | 2 | 64 | > 90 | ΔBP After 1 hour [1]: -75 mmHg
5 | COC(=O)C1=C(C)NC(C)=C(C(=O)OCCCc2ccccc2)C1c1cccc([N+](=O)[O-])c1 (centres unmarked) [E, 4(3-nitrophenyl)-2,6-dimethyl-1,4-dihydropyridine-3,5-dicarboxylic aci 3methyl ester 5(3-phenyl)-1-propyl ester, reference compound] | – | 0 | – | – | – | – | –
6 | 1-methyl-3-thienyl-2-propenyl methyl 4-(3-nitrophenyl)-2,6-dimethyl-1,4-dihydropyridine-3,5-dicarboxylate [Example 36] | 130 | 59 | > 4 | 25.0 | 69 | > 220 | –
7 | CC1=C(C(=O)OCC=Cc2ccccc2)C(c2cccc([N+](=O)[O-])c2)C(C(=O)OCCOc2ccccc2)=C(C)N1 (centres unmarked) [Example 44, Cinnamyl 2-phenoxyethyl 4-(3-nitrophenyl)-2,6-dimethyl-1,4-dihydropyridine-3,5-dicarboxylate] | – | – | – | 7 | 43 | – | ΔBP After 1 hour [1]: -30 mmHg; ΔBP After 3 hours [1]: -70 mmHg; Duration [1]: 7 to 24 h; halflife (number in parentheses in Duration column) [3]: 0.75 h
8 | COC(=O)C1=C(C)NC(C)=C(C(=O)OCCC=Cc2cccs2)C1c1cccc([N+](=O)[O-])c1 (stereo not drawn) [Example 11, 4-α-thienyl-3-butenyl methyl 4-(3-nitrophenyl)-2,6-dimethyl-1,4-dihydropyridine-3,5-dicarboxylate] | 200 | 25 | 4 | 1.6 | 60 | 100 | –
9 | COC(=O)C1=C(C)NC(C)=C(C(=O)OC(C)C=Cc2ccccc2)C1c1cccc([N+](=O)[O-])c1 (centres unmarked) [Example 30, 1-methyl-3-phenyl-2-propenyl methyl 4-(3-nitrophenyl)-2,6-dimethyl-1,4-dihydropyridine-3,5-dicarboxylate] | 65 | 89 | > 4 | 5.0 | 75 | > 120 | –
10 | COC(=O)C1=C(C)NC(C)=C(C(=O)OCCC=Cc2ccccc2)C1c1cccc([N+](=O)[O-])c1 (centres unmarked) [Example 4, 4-phenyl-3-butenyl methyl 4-(3-nitrophenyl)-2,6-dimethyl-1,4-dihydropyridine-3,5-dicarboxylate] | 105 | 20 | > 2.83 | 1.3 | 63.3 | > 90 | –
11 | COC(=O)C1=C(C)NC(C)=C(C(=O)OCC=CC=Cc2ccccc2)C1c1cccc([N+](=O)[O-])c1 (centres unmarked) [Example 16, 5-phenyl-2,4-pentadienyl methyl 4-(3-nitrophenyl)-2,6-dimethyl-1,4-dihydropyridine-3,5-dicarboxylate] | 50 | 45 | > 2 | – | – | – | ΔBP After 1 hour [1]: -55 mmHg; ΔBP After 3 hours [1]: -60 mmHg; Duration [1]: > 24 h
12 | CC=CC=CCOC(=O)C1=C(C)NC(C)=C(C(=O)OC)C1c1cccc([N+](=O)[O-])c1 (centres unmarked) [Example 66, methyl 2,4-hexadienyl 4-(3-nitrophenyl)-2,6-dimethyl-1,4-dihydropyridine-3,5-dicarboxylate] | 35 | 65 | > 2 | 1.4 | 71.7 | > 90 | halflife (number in parentheses in Duration column) [3]: 0.722 h
13 | COC(=O)C1=C(C)NC(C)=C(C(=O)OC/C=C\c2ccccc2)C1c1cccc([N+](=O)[O-])c1 (stereo not drawn) [Example 56, Methyl (Z)-3-phenyl-2-propenyl 4-(3-nitrophenyl)-2,6-dimethyl-1,4-dihydropyridine-3,5-dicarboxylate (cis)] | – | – | – | 1.3 | 40.3 | – | Depressure Response MaxΔBP ([4]; 10 μg/kg i.v.): 16.0 mmHg; Depressure Response Peak ([4]; 10 μg/kg i.v.): 1.2 min; MaxΔHR (Heart rates) ([4]; 10 μg/kg i.v.): 30.0 beats/min; T 1/2 (Halflife) ([4]; 10 μg/kg i.v.): 0.105 h; Depressure Response MaxΔBP ([4]; 30 μg/kg i.v.): 40.3 mmHg; Depressure Response Peak ([4]; 30 μg/kg i.v.): 1.3 min; MaxΔHR (Heart rates) ([4]; 30 μg/kg i.v.): 80.0 beats/min; T 1/2 (Halflife) ([4]; 30 μg/kg i.v.): 0.198 h; Depressure Response MaxΔBP ([4]; 100 μg/kg i.v.): 67.5 mmHg; Depressure Response Peak ([4]; 100 μg/kg i.v.): 1.8 min; MaxΔHR (Heart rates) ([4]; 100 μg/kg i.v.): 87.5 beats/min; T 1/2 (Halflife) ([4]; 100 μg/kg i.v.): 0.533 h; ED40 ([4]; Rattus norvegicus, intravenous, from regression line): 0.0299 mg/kg
14 | CC1=C(C(=O)OCC=CC=Cc2ccccc2)C(c2cccc([N+](=O)[O-])c2)C(C(=O)OC(C)C)=C(C)N1 (centres unmarked) [Example 61, Isopropyl 5-phenyl-2,4-pentadienyl 4-(3-nitrophenyl)-2,6-dimethyl-1,4-dihydropyridine-3,5-dicarboxylate] | – | – | – | 7.0 | 85 | > 90 | ΔBP After 1 hour [1]: -40 mmHg; ΔBP After 3 hours [1]: -100 mmHg
15 | 4-(4-methoxyphenyl)-3-butenyl methyl 4-(3-nitrophenyl)-2,6-dimethyl-1,4-dihydropyridine-3,5-dicarboxylate [Example 18] | 37 | 18 | 2 | – | – | – | –
16 | COC(=O)C1=C(C)NC(C)=C(C(=O)OC(C)C=Cc2ccco2)C1c1cccc([N+](=O)[O-])c1 (centres unmarked) [Example 33, 1-methyl-3-furyl-3-propenyl methyl 4-(3-nitrophenyl)-2,6-dimethyl-1,4-dihydropyridine-3,5-dicarboxylate] | 22 | 100 | > 4 | 10.0 | 85 | > 240 | –
17 | C#CCOC(=O)C1=C(C)NC(C)=C(C(=O)OC)C1c1cccc([N+](=O)[O-])c1 (centres unmarked) [D, 4(3-nitrophenyl)-2,6-dimethyl-1,4-dihydropyridine-3,5-dicarboxylic aci 3methyl ester 5propargyl ester, reference compound] | – | 0 | – | – | – | – | –
18 | COC(=O)C1=C(C)NC(C)=C(C(=O)OCC=CC=Cc2cccs2)C1c1cccc([N+](=O)[O-])c1 (centres unmarked) [Example 51, Methyl 5-(2-thienyl)-2,4-pentadienyl 4-(3-nitrophenyl)-2,6-dimethyl-1,4-dihydropyridine-3,5-dicarboxylate] | – | – | – | 2.0 | 40 | > 90 | –
19 | CCC(C=Cc1ccccc1)OC(=O)C1=C(C)NC(C)=C(C(=O)OC)C1c1cccc([N+](=O)[O-])c1 (centres unmarked) [Example 25, 1-ethyl-3-phenyl-2-propenyl methyl 4-(3-nitrophenyl)-2,6-dimethyl-1,4-dihydropyridine-3,5-dicarboxylate] | – | – | – | 10 | 71 | > 240 | –
